Reference: US20070027067A1, “Transition-state Inhibitors of Pin1, alpha-Ketoamide-containing peptidomimetics, and synthesis thereof” (priority 2005, published 2007)

Test: stability of the product in solution
Format: physicochemical
Settings: CDCl3 solution, after 2 days; decomposition product appears to be a cyclic dimer (bis-lactone)
From the text: The compound 7 characterized by MS was obtained in 30% yield. […] The decomposition product appears to be a cyclic dimer (bis-lactone) of 7. [drawing 8] [drawing 9]

Structure (SMILES): O=C(N[C@@H](CO)C(=O)C(=O)N1CCC[C@H]1C(=O)O)OCC1c2ccccc2-c2ccccc21 [Compound 7]
- stability in solution (decomposition): totally decomposed
